Source: US20190374554A1, “USE OF OXYGENATED CHOLESTEROL SULFATES (OCS) TO TREAT INFLAMMATORY SKIN DISEASE AND SKIN LESIONS” (Virginia Commonwealth University, priority 2016, published 2019)

Test: Infusion compatibility: 25HC3S diluted in 5% dextrose infusion bag and eluted through infusion sets (potency, osmolality, pH, appearance)
Format: physicochemical
Method: A physical and chemical compatibility study was conducted at a 30 mg, 48 mg and 300 mg 25HC3S dose in 5% dextrose and 0.9% sodium chloride infusion bags. Descriptions of the two kinds of infusion sets tested with 25HC3S product diluted in 5% dextrose and 0.9% sodium chloride are listed in Table 15. The tubing in catalog number 2H8480 infusion set was composed of polyvinylchloride (PVC), while the tubing in catalog number 2C8858 was polyethylene lined except for a short pump segment (approximately 12 inches) which was composed of PVC.
25HC3S for Injection and Vehicle for 25HC3S for Injection, that had been stored at 2-8° C. for approximately 16 months, were used for the compatibility study. After constitution, 30 mg (1.0 mL of constituted product), 48 mg (1.6 mL of constituted product) or 300 mg (10 mL of constituted product) were added to 100 mL infusion bags of 5% dextrose and 0.9% sodium chloride, mixed thoroughly, and stored for 24 hours at room temperature and at 2-8° C. […] Taking into consideration the overfill per infusion bag and the additional volume introduced by adding the constituted 25HC3S product to each bag, the expected concentrations of 25HC3S were 0.28 mg/mL, 0.44 mg/mL, and 2.56 mg/mL in the infusion bags. Two kinds of infusion sets were then attached to the drug containing infusion bags, and the entire contents were eluted through the infusion sets at approximately 50 mL/hour at room temperature. Samples were collected from the 25HC3S prepared infusion bags at T=0 and at 24 hours, and from the total eluent passed through the infusion sets, and tested for 25HC3S concentration using HPLC. Solution visual appearance, osmolality (using method USP<785>), and pH (using method USP<791>) were also measured on the collected samples.

[1] = 5% dextrose, approx. 0.28 mg/mL, bag 24 h at 25° C., Baxter 2H8480
[2] = 5% dextrose, approx. 0.44 mg/mL, bag 24 h at 2-8° C., Baxter 2C8858
[3] = 5% dextrose, approx. 0.44 mg/mL, bag 24 h at 2-8° C., Baxter 2H8480
[4] = 5% dextrose, approx. 0.44 mg/mL, bag 24 h at 25° C., Baxter 2C8858
[5] = 5% dextrose, approx. 0.44 mg/mL, bag 24 h at 25° C., Baxter 2H8480
[6] = 5% dextrose, approx. 2.56 mg/mL, bag 24 h at 2-8° C., Baxter 2C8858
[7] = 5% dextrose, approx. 2.56 mg/mL, bag 24 h at 2-8° C., Baxter 2H8480
[8] = 5% dextrose, approx. 2.56 mg/mL, bag 24 h at 25° C., Baxter 2C8858
[9] = 5% dextrose, approx. 2.56 mg/mL, bag 24 h at 25° C., Baxter 2H8480
[10] = dextrose drug containing solutions

In the case of C[C@H](CCCC(C)(C)O)[C@H]1CC[C@H]2[C@@H]3CC=C4C[C@@H](OS(=O)(=O)[O-])CC[C@]4(C)[C@H]3CC[C@]12C.[Na+] [Formulation 25HC3S, 5-cholesten-3, 25-diol, 3-sulfate], the “After Storage in Infusion Bag and Collection from Infusion Set pH” value (shortened to “After Storage … from Infusion Set pH”) (5% dextrose, approx. 0.28 mg/mL, bag 24 h at 25° C., Baxter 2C8858) is reported as 7.04, the “After Storage in Infusion Bag and Collection from Infusion Set % Remaining Compared to T = 0” value [1] is reported as “(100.0%)” and the “After Storage in Infusion Bag and Collection from Infusion Set Concentration” value (from here on “After Storage … from Infusion Set Concentration”) [1] is reported as 0.276 mg/mL. For the same molecule, the “After Storage in Infusion Bag and Collection from Infusion Set Osmolality” value (from here on “After Storage … from Infusion Set Osmolality”) [1] was 252 mmol/kg, the “After Storage … from Infusion Set pH” value [1] was 6.99 and the “After Storage in Infusion Bag and Collection from Infusion Set % Remaining Compared to T = 0” value [2] was “(100.2%)”. The “After Storage … from Infusion Set Concentration” value [2] was 0.440 mg/mL, the “After Storage … from Infusion Set Osmolality” value [2] was 255 mmol/kg and the “After Storage … from Infusion Set pH” value [2] was 6.93. The “After Storage in Infusion Bag and Collection from Infusion Set % Remaining Compared to T = 0” value [3] was “(100.2%)”, the “After Storage … from Infusion Set Concentration” value [3] was 0.440 mg/mL and the “After Storage … from Infusion Set Osmolality” value [3] was 257 mmol/kg. For the same molecule, the “After Storage … from Infusion Set pH” value [3] was 6.91, the “After Storage in Infusion Bag and Collection from Infusion Set % Remaining Compared to T = 0” value [4] was “(100.0%)” and the “After Storage … from Infusion Set Concentration” value [4] was 0.442 mg/mL. For the same molecule, the “After Storage … from Infusion Set Osmolality” value [4] was 253 mmol/kg, the “After Storage … from Infusion Set pH” value [4] was 6.90 and the “After Storage in Infusion Bag and Collection from Infusion Set % Remaining Compared to T = 0” value [5] was “(100.2%)”. The “After Storage … from Infusion Set Concentration” value [5] was 0.448 mg/mL, the “After Storage … from Infusion Set Osmolality” value [5] was 253 mmol/kg and the “After Storage … from Infusion Set pH” value [5] was 6.91. For the same molecule, the “After Storage in Infusion Bag and Collection from Infusion Set % Remaining Compared to T = 0” value [6] was “(100.4%)”, the “After Storage … from Infusion Set Concentration” value [6] was 2.535 mg/mL and the “After Storage … from Infusion Set Osmolality” value [6] was 248 mmol/kg. For the same molecule, the “After Storage … from Infusion Set pH” value [6] was 6.10, the “After Storage in Infusion Bag and Collection from Infusion Set % Remaining Compared to T = 0” value [7] was “(100.4%)” and the “After Storage … from Infusion Set Concentration” value [7] was 2.540 mg/mL. The “After Storage … from Infusion Set Osmolality” value [7] was 247 mmol/kg, the “After Storage … from Infusion Set pH” value [7] was 5.99 and the “After Storage in Infusion Bag and Collection from Infusion Set % Remaining Compared to T = 0” value [8] was “(101.4%)”. For the same molecule, the “After Storage … from Infusion Set Concentration” value [8] was 2.545 mg/mL, the “After Storage … from Infusion Set Osmolality” value [8] was 251 mmol/kg and the “After Storage … from Infusion Set pH” value [8] was 6.00. For the same molecule, the “After Storage in Infusion Bag and Collection from Infusion Set % Remaining Compared to T = 0” value [9] was “(99.2%)”, the “After Storage … from Infusion Set Concentration” value [9] was 2.480 mg/mL and the “After Storage … from Infusion Set Osmolality” value [9] was 261 mmol/kg. The “After Storage … from Infusion Set pH” value [9] was 6.01, the “deviation of 25HC3S concentrations from the initial T=0 time point” value (5% dextrose, after 24 hours at room temperature and at 2-8° C., and after elution through infusion sets) was at most 1.4% and the osmolality trend [10] was “no consistent trends over time in the infusion bag or after elution through the infusion sets”. The pH trend [10] was “no trends over time or after elution through the infusion sets” and the solution visual appearance (dextrose, all three concentrations, after 24 hours in bags and after elution) was “remained as clear and colorless solutions”.
